# According to patent US20260276656A1, “GUT MICROBIOTA-RELATED METHODS FOR TREATING DEMENTIA AND AGE-DEPENDENT COGNITIVE DECLINE” (Albert-Ludwigs-Universitat Freiburg, priority 2019, published 2026):
# Entries after “also recorded” stand apart in the source; their conditions may differ.
# Legend:
# [1] = system: parvalbumin-positive interneurons; test: Spontaneous IPSC recordings from parvalbumin-positive interneurons in acute hippocampal slices; assay type: cell-based; details: bath-applied, 10 μM; acute mouse hippocampal slices, area CA1
# Method: Mice were anesthetized and decapitated, after which the brain was quickly removed and placed into oxygenated, ice-cold, high-sucrose artificial cerebrospinal fluid (hsACSF), containing (in mM): 150 sucrose, 50 NaCl, 25 NaHCO3, 10 dextrose, 2.5 KCl, 1 NaH2PO4·H2O, 0.5 CaCl2), and 7 MgCl2. After 2 min in hsACSF, the brain was blocked, glued to the stage of a Vibratome (VTS1000; Leica, Bannockburn, IL), and cut into 300-μm horizontal brain slices containing hippocampus. Slices were then placed in a chamber containing ACSF (in mM: 124 NaCl, 3 KCl, 1.25 NaH2PO4·H2O, 2 MgSO4·7H2O, 26 NaHCO3, 10 dextrose, and 2 CaCl2)). […]
# For recording, slices were placed in a submerged recording chamber (Warner Instruments, Hamden, CT) with oxygenated ACSF heated to 32° C. and flowing at 2-4 ml/min. […] Data were obtained using an Axopatch 1D amplifier (Axon Instruments, Foster City, CA); data were digitized at 10 kHz and recorded using a Digidata 1320A and pClamp 8.2 software (Molecular Devices, Sunnyvale, CA). […] After obtaining a stable voltage-clamp recording from a CA1 interneuron, the recording was switched to current-clamp mode and injected steps of hyperpolarizing and depolarizing current were used to determine the class of cell being recorded using published firing patterns and action potential (AP) properties (Butt et al., 2005; Flames and Marin, 2005). […]
# [2] = system: Layer 2/3 pyramidal cells of the infralimbic or prelimbic mPFC; test: Whole-cell patch-clamp recordings of spontaneous EPSCs and IPSCs in acute prefrontal brain slices; assay type: cell-based, mouse; details: pre-incubation with 10 μM
# Method: Mice were injected intraperitoneally with ketamine/xylazine (100/13 mg/kg body weight) and intracardially perfused with ice-cold solution containing (in mM) NaCl 87, NaHCO325, KCl 2.5, NaH2PO4 1.25, glucose 10, sucrose 75, CaCl2 0.5 and MgCl2 7 (aerated with 95% O2/5% CO2). 300 μm thick frontal sections of the PFC were prepared with a vibratome and stored in artificial cerebrospinal fluid (ACSF) containing in mM: NaCl 125, NaHCO3 25, KCl 2.5, NaH2PO4 1.25, Glucose 25, CaCl2 2 and MgCl2 1 (equillibrated with 95% O2/5% CO2) first at 34° C. for 30 min, then at room temperature. Patch-clamp recordings were targeted to pyramidal neurons identified by their characteristic soma shape using pipettes pulled from borosilicate glass tubing and filled with a Cs-based pipette solution containing (in mM): CsCl 20, MgCl2 2, Na2ATP 2, QX-314 1, Hepes 10, TEACl 8, Cs-Gluconate 110. Recordings were performed at 30 to 34° C. using an Axopatch Multiclamp amplifier in voltage clamp mode. To isolate spontaneous excitatory postsynaptic currents (EPSCs), the resting membrane potential was held at −70 mV (the reversal potential of inhibitory postsynaptic currents (IPSCs). To record spontaneous IPSCs, the cell was held at 0 mV (the reversal potential of EPSCs). Both IPSCs and EPSCs were recorded from the same neurons in slices pre-incubated in 10 μM 6-valerobetaine or in control slices kept in ACSF. Spontaneous events were identified visually from lowpass-filtered data (<1 kHz). Amplitudes were measured from average events.
# [3] = system: prelimbic or infralimbic cortex of the mPFC; test: In vivo recordings from prelimbic or infralimbic cortex, spike-spike synchronization; design: species or system mouse; details: systemic application (intraperitoneally); n=9 mice; FIG. 8
# Method: C57BL/6J mice aged 10-11 weeks were anesthetized with isofluorane (induction: 3%, maintenance approximately 1.5%). Buprenorphin (0.05-0.1 mg/kg body weight) and Carprofen (4-5 mg/kg body weight) were injected for analgesia. During implantation, the body temperature was maintained with a heating pad. The skin was incised from the cerebellum to the nose and the bone cleaned with 3% H2O2. Ground and reference screws (1 mm diameter) were inserted anterior to the lambdoid suture. A third stabilizing screw was inserted on the left parietal bone. A microdrive loaded with 8 tetrodes made from tungsten wire (California Fine Wire Company) was inserted in the right prefrontal cortex at the coordinates AP+1.9, ML 0.4, DV−1.2 (from brain surface). The craniotomy was protected with vaseline and the microdrive fixed to the skull using dental cement. After the surgery, the mice were injected with buprenorphin and carprofen subcutaneously for 48 h hours and housed individually.
# Local field potential were recorded with a wireless amplifier system (W4, Multichannel Systems) 2-21 days after surgery at a sampling rate of 2 kHz or with a wired recording system (RHD2000, Intan Technologies, sampling rate 10 kHz) on freely moving mice. Single-unit activity was recorded at 20-30 kHz using a 32-channel amplifier system (RHD2000, Intan Technologies). […]
structure (smiles),measurement,setting,value
"C[N+](C)(C)CCCCC(=O)[O-] [NNN-trimethyl-5-aminovalerate, 5-(trimethylammonio) pentanoate]",frequencies of spontaneous IPSCs (spIPSCs) in parvalbumin-positive interneurons,[1],increase
same,amplitude of spontaneous EPSCs,[2],unaltered; also recorded: no significant effect
same,amplitude of spontaneous IPSCs,[2],not the amplitude; also recorded: no significant effect
same,frequency of spontaneous EPSCs,[2],unaltered
same,frequency of spontaneous IPSCs,[2],increased
same,spike-spike-synchronization,[3],enhanced
